The record followed here is patent publication US9499553B2 (CHUGAI SEIYAKU KABUSHIKI KAISHA, priority 2013, dated 2016).

The target of one experiment is T1, human NaPi-IIb (Homo sapiens, UniProt O95436).
T1 construct: expressed in transfected cells
T1 sequence (O95436 1-690): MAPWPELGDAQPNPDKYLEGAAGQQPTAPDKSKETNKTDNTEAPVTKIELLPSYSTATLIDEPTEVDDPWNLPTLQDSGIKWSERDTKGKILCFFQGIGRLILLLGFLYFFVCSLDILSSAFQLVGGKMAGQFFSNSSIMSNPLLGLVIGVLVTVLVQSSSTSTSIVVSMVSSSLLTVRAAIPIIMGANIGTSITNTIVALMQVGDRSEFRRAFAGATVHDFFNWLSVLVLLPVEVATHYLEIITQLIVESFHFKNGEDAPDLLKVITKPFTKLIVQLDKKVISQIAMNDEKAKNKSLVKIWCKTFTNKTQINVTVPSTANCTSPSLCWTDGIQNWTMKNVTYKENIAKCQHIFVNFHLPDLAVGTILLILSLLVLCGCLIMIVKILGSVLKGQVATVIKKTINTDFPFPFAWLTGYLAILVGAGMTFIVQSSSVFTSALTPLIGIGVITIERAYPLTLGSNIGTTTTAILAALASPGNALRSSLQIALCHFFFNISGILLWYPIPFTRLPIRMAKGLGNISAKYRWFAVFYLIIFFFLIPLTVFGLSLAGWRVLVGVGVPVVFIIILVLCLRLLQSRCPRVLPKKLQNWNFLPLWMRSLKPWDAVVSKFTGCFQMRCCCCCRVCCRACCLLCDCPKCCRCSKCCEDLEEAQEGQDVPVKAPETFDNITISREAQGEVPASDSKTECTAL
The experiment in a line: Inhibitory effect on 33PO4 uptake into human NaPi-IIb-expressing CHO cells. The format is cell-based. The following applies: read-out: IC50. The gist of the method:
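Uptake of ³³PO4 was measured by scintillation counting after ice-cold buffer A washes. Cells were CHO stably expressing human NaPi-IIb, seeded overnight, and exposed to ³³PO4 in buffer A at room temperature.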
As to `C[C@]12CCCN1N(Cc1ccc(OCCN3CCOCC3)c(F)c1F)C(=O)C(C(=O)Nc1ccc(C(F)(F)F)cc1-c1ccc(C(F)(F)F)nc1)=C2O` [Example 161], the IC50 amounted to 11.5 µM. Turning to `C[C@]12CCCN1N(Cc1ccc(F)cc1F)C(=O)C(C(=O)Nc1ccc(C(F)(F)F)cc1-c1ccc(C(F)(F)F)nc1)=C2O` [Example 173], the IC50 was 1.9 µM. For `CN1N(Cc2ccc(C#CCN3CCOCC3)c(F)c2F)C(=O)C(C(=O)Nc2ccc(Cl)cc2-c2cc(C(F)(F)F)ncn2)=C(O)C1(C)C` [Example 316], the IC50 came out at 14.2 µM. As to `C[C@]12CCCN1N(Cc1cccc(F)c1F)C(=O)C(C(=O)Nc1ccc(C(F)(F)F)cc1-c1cnc(Cl)cn1)=C2O` [Example 74], the IC50 was determined as 4.1 µM.

Take `C[C@]12CCCN1N(Cc1cccc(F)c1F)C(=O)C(C(=O)Nc1ccc(C(F)(F)F)cc1-c1ccc(C(F)(F)F)nc1Br)=C2O` [Example 85]: the IC50 was found to be 6.2 µM. On the same count and under the same terms, the figure for `CN(CCOc1ccc(CN2C(=O)C(C(=O)Nc3ccc(C(F)(F)F)cc3-c3cc(C(F)(F)F)ncn3)=C(O)C3(CCC3)N2C)c(F)c1F)C1CCOC1` (stereo not shown) [Example 338, 6-[[2,3-Difluoro-4-[2-[methyl(oxolan-3-yl)amino]ethoxy]phenyl]methyl]-9-hydroxy-5-methyl-7-oxo-N-[4-(trifluoromethyl)-2-[6-(trifluoromethyl)pyrimidin-4-yl]phenyl]-5,6-diazaspiro[3.5]non-8-ene-8-carboxamide] is 13.4 µM.

In the case of `CCOc1cccc(-c2cc(C(F)(F)F)ccc2NC(=O)C2=C(O)[C@@]3(C)CCCN3N(Cc3cccc(F)c3F)C2=O)c1OC` [Example 66], the IC50 was found to be 17.3 µM. Still for that read-out and setting: the figure for `C[C@]12CCCN1N(Cc1cccc(F)c1F)C(=O)C(C(=O)Nc1ccc(Br)cc1)=C2O` [Example 77] is 8.9 µM.

Consider `CN1N(Cc2cccc(F)c2F)C(=O)C(C(=O)Nc2ccc(Cl)cc2-c2cc(C(F)(F)F)ncn2)=C(O)C12CCC2` [Example 255], for which the IC50 stood at 9.8 µM.

Consider `C[C@]12CCCN1N(Cc1cccc(Cl)c1F)C(=O)C(C(=O)Nc1ccc(C(F)(F)F)cc1-c1ccc(C(F)(F)F)nc1)=C2O` [Example 198], for which the IC50 is 2.4 µM. Turning to `C[C@]12CCCN1N(Cc1ccc(OC[C@H]3CCCO3)c(F)c1F)C(=O)C(C(=O)Nc1ccc(C(F)(F)F)cc1-c1ccc(C(F)(F)F)nc1)=C2O` [Example 160], the IC50 was 7.3 µM. Still for that read-out and setting: the result for `CN1[C@@H](C(C)(C)C)C(O)=C(C(=O)Nc2ccc(Cl)cc2-c2cc(C(F)(F)F)ncn2)C(=O)N1Cc1cccc(F)c1F` [Example 237] reads 12.8 µM; that for `C[C@]12CCCN1N(Cc1ccc(OCCCCCO)c(F)c1F)C(=O)C(C(=O)Nc1ccc(C(F)(F)F)cc1-c1cc(C(F)(F)F)ncn1)=C2O` [Example 162], 15.1 µM. In the case of `C[C@]12CCCN1N(Cc1cccc(OC(F)F)c1)C(=O)C(C(=O)Nc1ccc(C(F)(F)F)cc1-c1cc(C(F)(F)F)ncn1)=C2O` [Example 177], the IC50 is 11.1 µM.

Take `C[C@]12CCCN1N(Cc1cccc(Cl)c1F)C(=O)C(C(=O)Nc1ccc(C(F)(F)F)cc1-c1cc(C(F)(F)F)ncn1)=C2O` [Example 209]: the IC50 was found to be 4.8 µM. On to `Cc1c(-c2cc(C(F)(F)F)ccc2NC(=O)C2=C(O)C3(CCCC3)N(C)N(Cc3ccc(OCCN4CCOCC4)c(F)c3F)C2=O)ncnc1C(F)(F)F` [Example 290], for which the IC50 came out at 7 µM. For `CN1[C@@H](C(C)(C)C)C(O)=C(C(=O)Nc2cnc(C(F)(F)F)nc2-c2ccc(C(F)(F)F)nc2)C(=O)N1Cc1ccc(OCCN2CCOCC2)c(F)c1F` [Example 273], the IC50 was determined as 13.2 µM.

Turning to `C[C@]12CCCN1N(Cc1cccc(Cl)c1)C(=O)C(C(=O)Nc1cc(F)c(Br)c(F)c1)=C2O` [Example 221], the IC50 was found to be 6.6 µM. Turning to `Cc1c(Cl)ncnc1-c1cc(C(F)(F)F)ccc1NC(=O)C1=C(O)[C@H](C(C)(C)C)N(C)N(Cc2ccc(OCCN3CCOCC3)c(F)c2F)C1=O` [Example 276], the IC50 is 15.8 µM.

On to `COc1cncc(-c2cc(C(F)(F)F)ccc2NC(=O)C2=C(O)[C@@]3(C)CCCN3N(Cc3cccc(F)c3F)C2=O)c1` [Example 81], for which the IC50 was found to be 17.5 µM. For `COCCOCCOCCCCCCCCN1C(=O)C(C(=O)Nc2ccc(C(F)(F)F)cc2-c2cc(C(F)(F)F)ncn2)=C(O)[C@@]2(C)CCCN12` [Example 236], the IC50 is 24.7 µM.

As to `C[C@]12CCCN1N(Cc1cc(F)cc(F)c1)C(=O)C(C(=O)Nc1ccc(C(F)(F)F)cc1-c1ccc(C(F)(F)F)nc1)=C2O` [Example 171], the IC50 was found to be 2.2 µM. Take `CC(C)[C@H]1C(O)=C(C(=O)Nc2ccc(C(F)(F)F)cc2-c2ccc(C(F)(F)F)nc2)C(=O)N(Cc2cccc(F)c2F)N1C` [Example 253]: the half-inhibitory concentration (IC50) was determined as 4.4 µM. On the same count and under the same terms, the figure for `C[C@]12CCCN1N(Cc1cccc(F)c1Cl)C(=O)C(C(=O)Nc1ccc(C(F)(F)F)cc1-c1ccc(C(F)(F)F)nc1)=C2O` [Example 201] is 1.3 µM. Regarding `CN1N(Cc2cccc(F)c2F)C(=O)C(C(=O)Nc2ccc(C(F)(F)F)cc2-c2ccc(C(F)(F)F)nc2)=C(O)C12CCC2` [Example 301], the IC50 came out at 2.6 µM. Turning to `CSc1ccc(-c2cc(C(F)(F)F)ccc2NC(=O)C2=C(O)[C@@]3(C)CCCN3N(Cc3ccc(CCCCCCC(=O)O)c(F)c3F)C2=O)cn1` [Example 115, 7-[4-[[(4aR)-4-Hydroxy-4a-methyl-3-[[2-(6-methylsulfanylpyridin-3-v1)-4-(trifluoromethyl)phenyl]carbamoyl]-2-oxo-6,7-dihydro-5H-pyrrolo[1,2-b]pyridazin-1-yl]methyl]-2,3-difluorophenyl]heptanoate], the IC50 was 6.9 µM. Consider `CN1N(Cc2cccc(F)c2F)C(=O)C(C(=O)Nc2ccc(C(F)(F)F)cc2-c2ccc(S(=O)(=O)N(C)C)cc2)=C(O)C1(C)C` [Example 308], for which the IC50 is 12.6 µM. As to `C[C@]12CCCN1N(Cc1cc(F)c(F)c(F)c1)C(=O)C(C(=O)Nc1cc(F)c(Br)c(F)c1)=C2O` [Example 197], the IC50 was found to be 7 µM. On to `C[C@]12CCCN1N(Cc1cccc(F)c1F)C(=O)C(C(=O)Nc1ccc(C(F)(F)F)cc1-c1cnc(N3CC4(COC4)C3)c(C#N)c1)=C2O` [Example 111, (4aR)—N-[2-[5-Cyano-6-(2-oxa-6-azaspiro[3.3]heptan-6-yl)pyridin-3-yl]-4-(trifluoromethyl)phenyl]-1-[(2,3-difluorophenyl)methyl]-4-hydroxy-4a-methyl-2-oxo-6,7-dihydro-5H-pyrrolo[1,2-b]pyridazine-3-carboxamide], for which the IC50 is 20 µM. With `C[C@]12CCCN1N(Cc1ccc(C#N)cc1)C(=O)C(C(=O)Nc1cc(F)c(Br)c(F)c1)=C2O` [Example 222], the IC50 amounted to 17.6 µM.

Still in this experiment, the particulars now being: read-out: IC50 against 33PO4 uptake into human NaPi-IIb-expressing cells.
With `CN1N(Cc2ccc(OCCCOC[C@H](O)CO)c(F)c2F)C(=O)C(C(=O)Nc2ccc(C(F)(F)F)cc2-c2ccc(C(F)(F)F)nc2)=C(O)C12CCC2` [Example 383, 6-[[4-[3-[(2R)-2,3-Dihydroxypropoxy]propoxy]-2,3-difluorophenyl]methyl]-9-hydroxy-5-methyl-7-oxo-N-[4-(trifluoromethyl)-2-[6-(trifluoromethyl)pyridin-3-yl]phenyl]5,6-diazaspiro[3.5]non-8-ene-8-carboxamide], the IC50 worked out at 20.9 µM. In the case of `COCCN(C)CCOCCOc1ccc(CN2C(=O)C(C(=O)Nc3ccc(C(F)(F)F)cc3-c3cc(C(F)(F)F)ncn3)=C(O)C3(CCCC3)N2C)c(F)c1F` [Example 429, 7-[[2,3-Difluoro-4-[2-[2-[2-methoxyethyl(methyl)amino]ethoxy]ethoxy]phenyl]methyl]-10-hydroxy-6-methyl-8-oxo-N-[4-(trifluoromethyl)-2-[6-(trifluoromethyl)pyrimidin-4-yl]phenyl]-6,7-diazaspiro[4.5]dec-9-ene-9-carboxamide], the IC50 is 7.7 µM. With `COCCN(CCOC)CCOc1ccc(CN2C(=O)C(C(=O)Nc3ccc(C(F)(F)F)cc3-c3cc(C(F)(F)F)ncn3)=C(O)C3(CCC3)N2C)c(F)c1F` [Example 348], the IC50 turned out to be 26.1 µM.

For the molecule `CN(CCO)CCOc1ccc(CN2C(=O)C(C(=O)Nc3ccc(C(F)(F)F)cc3-c3cc(C(F)(F)F)ncn3)=C(O)C3(CCCC3)N2C)c(F)c1F` [Example 373], the IC50 came out at 23.5 µM.

On to `COCCN(C)CCOc1c(-c2cccnc2)cc(CN2C(=O)C(C(=O)Nc3ccc(C(F)(F)F)cc3-c3cc(C(F)(F)F)ncn3)=C(O)C3(CCCC3)N2C)c(F)c1F` [Example 440, 9-[[2,3-Difluoro-4-[2-[2-methoxyethyl(methyl)amino]ethoxy]-5-(3-pyridinyl)phenyl]methyl]-6-hydroxy-10-methyl-8-oxo-N-[4-(trifluoromethyl)-2-[6-(trifluoromethyl)pyrimidin-4-yl]phenyl]-9,10-diazaspiro[4.5]dec-6-ene-7-carboxamide], for which the IC50 was found to be 22.6 µM.

For `CN1N(Cc2ccc(OCCCCCOC[C@H](O)CO)c(F)c2F)C(=O)C(C(=O)Nc2ccc(C(F)(F)F)cc2-c2ccc(C(F)(F)F)nc2)=C(O)C12CCC2` [Example 385], the half-inhibitory concentration (IC50) was 6.2 µM. For `COCCN(C)CCOCCOCCOCCOCCOc1ccc(CN2C(=O)C(C(=O)Nc3ccc(C(F)(F)F)cc3-c3cc(C(F)(F)F)ncn3)=C(O)C3(CCCC3)N2C)c(F)c1F` [Example 432], the IC50 worked out at 6.3 µM.
